From ChEMBL document CHEMBL1201862, “PubChem BioAssay data set” (2004)
Active and inactive are the calls of the source.

Legend:
[1] = biological target: Cytochrome P450 2D6 (Homo sapiens, UniProt P10635);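 note: CYP2D6 member of a cytochrome P450 panel assay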
[2] = biological target: Cytochrome P450 3A4 (Homo sapiens, UniProt P08684);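 note: CYP3A4 tested as one member of a cytochrome P450 panel screen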
[3] = biological target: Cytochrome P450 2C19 (Homo sapiens, UniProt P33261); test: Cytochrome panel assay with activity outcomes. Panel member name: p450-cyp2c19 Compounds with AC50 equal or less than 10 uM are considered active; assay type: functional
Sequence of Cytochrome P450 2C19 (P33261 whole entry): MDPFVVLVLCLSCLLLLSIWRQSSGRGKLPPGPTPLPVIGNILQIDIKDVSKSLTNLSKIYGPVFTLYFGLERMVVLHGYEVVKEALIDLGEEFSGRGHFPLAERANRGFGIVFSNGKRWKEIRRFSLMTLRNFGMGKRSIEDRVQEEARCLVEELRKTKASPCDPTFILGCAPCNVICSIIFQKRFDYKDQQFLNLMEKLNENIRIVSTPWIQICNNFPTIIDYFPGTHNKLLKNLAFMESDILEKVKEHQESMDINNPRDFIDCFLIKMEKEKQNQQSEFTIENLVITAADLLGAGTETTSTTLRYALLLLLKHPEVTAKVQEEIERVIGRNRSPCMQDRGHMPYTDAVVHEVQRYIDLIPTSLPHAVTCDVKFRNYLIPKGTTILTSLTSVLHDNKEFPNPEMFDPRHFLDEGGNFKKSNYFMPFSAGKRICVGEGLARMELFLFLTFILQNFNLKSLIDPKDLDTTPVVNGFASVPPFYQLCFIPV

[4] = biological target: T1, Cytochrome P450 1A2 (Homo sapiens, UniProt P05177);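 note: PubChem cytochrome P450 panel assay, CYP1A2 panel member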
T1 sequence (P05177 whole entry): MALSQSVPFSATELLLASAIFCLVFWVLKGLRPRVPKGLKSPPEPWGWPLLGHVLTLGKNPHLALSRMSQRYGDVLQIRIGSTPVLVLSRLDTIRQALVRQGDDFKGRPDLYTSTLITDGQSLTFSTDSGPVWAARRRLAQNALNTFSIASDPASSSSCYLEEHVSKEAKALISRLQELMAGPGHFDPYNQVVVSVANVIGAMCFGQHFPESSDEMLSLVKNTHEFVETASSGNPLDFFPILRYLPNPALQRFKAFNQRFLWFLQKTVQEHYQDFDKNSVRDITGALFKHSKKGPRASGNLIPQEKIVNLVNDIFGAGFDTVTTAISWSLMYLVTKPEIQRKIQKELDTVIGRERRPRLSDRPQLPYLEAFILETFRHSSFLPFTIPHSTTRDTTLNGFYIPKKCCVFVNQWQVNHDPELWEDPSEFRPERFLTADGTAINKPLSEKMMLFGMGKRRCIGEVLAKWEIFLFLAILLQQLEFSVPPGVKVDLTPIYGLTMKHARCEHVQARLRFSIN

[5] = biological target: Cytochrome P450 2C9 (Homo sapiens, UniProt P11712)
Sequence of Cytochrome P450 2C9 (P11712 whole entry): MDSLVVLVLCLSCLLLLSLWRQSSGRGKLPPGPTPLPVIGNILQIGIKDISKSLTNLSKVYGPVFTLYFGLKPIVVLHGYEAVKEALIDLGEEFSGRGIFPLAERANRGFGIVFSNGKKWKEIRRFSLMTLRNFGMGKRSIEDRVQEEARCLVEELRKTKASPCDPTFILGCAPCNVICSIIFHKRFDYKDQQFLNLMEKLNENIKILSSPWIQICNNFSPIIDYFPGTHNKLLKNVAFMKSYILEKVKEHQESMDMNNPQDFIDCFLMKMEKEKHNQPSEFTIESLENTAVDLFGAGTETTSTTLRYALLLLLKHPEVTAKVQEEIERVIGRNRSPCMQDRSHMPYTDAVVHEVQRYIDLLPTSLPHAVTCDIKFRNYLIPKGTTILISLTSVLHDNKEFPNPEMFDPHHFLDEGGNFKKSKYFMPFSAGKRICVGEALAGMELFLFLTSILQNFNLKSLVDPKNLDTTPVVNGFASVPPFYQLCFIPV

[6] = test system: HEK293; test: cells; assay type: functional, cell-based; settings: Homo sapiens
[7] = biological target: T2, Nuclear receptor subfamily 0 group B member 1 (Homo sapiens, UniProt P51843); test: Luminescence-based cell-based high throughput dose response assay for inhibitors of the orphan nuclear receptor subfamily 0, group B, member 1 (DAX1; NR0B1). [Related pubchem assays (depositor defined):AID504766, AID504790]; assay type: functional
T2 sequence (P51843 whole entry): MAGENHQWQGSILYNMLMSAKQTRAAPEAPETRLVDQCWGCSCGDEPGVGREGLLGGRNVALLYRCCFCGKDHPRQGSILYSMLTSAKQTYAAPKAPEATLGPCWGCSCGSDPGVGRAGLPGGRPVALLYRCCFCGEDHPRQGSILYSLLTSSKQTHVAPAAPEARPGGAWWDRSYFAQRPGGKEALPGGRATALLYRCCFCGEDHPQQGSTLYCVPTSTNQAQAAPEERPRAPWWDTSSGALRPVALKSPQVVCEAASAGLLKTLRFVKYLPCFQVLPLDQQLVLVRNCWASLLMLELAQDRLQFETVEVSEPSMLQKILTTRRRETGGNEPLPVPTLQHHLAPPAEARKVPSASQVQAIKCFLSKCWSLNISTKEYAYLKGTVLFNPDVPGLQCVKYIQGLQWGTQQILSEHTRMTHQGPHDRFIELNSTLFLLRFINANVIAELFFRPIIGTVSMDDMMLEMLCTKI

[8] = test system: HEK293; test: cells; assay type: functional, cell-based; settings: Homo sapiens; remark: listed apart in the source
[9] = test system: HEK293; test: cells; assay type: functional, cell-based; settings: Homo sapiens; remark: listed apart in the source
[10] = test system: HEK293; test: cells; assay type: functional, cell-based; settings: Homo sapiens; remark: listed apart in the source
[11] = luciferase reporter signal suppression in cells – H4 neuroglioma cells, luminescence, dose response (AID 1990); assay type: functional, cell-based
[12] = Luminescence Cell-Based Dose Response HTS to Identify Inhibitors of 5'UTR Stem-Loop Driven Prion Protein mRNA Translation in H4 Neuroglioblastoma Cells. [Related pubchem assays: 1827 (Project Summary), 1813 (Primary HTS)]; assay type: functional
[13] = alpha-synuclein stem-loop luciferase translation blockers – H4 neuroglioma cells, luminescence, confirmation (AID 1988); assay type: functional, cell-based
[14] = test system: HEK293; test: inhibition of NOD1-driven NF-kB reporter – cell-based, luminescence, uHTS, primary screen (AID 1578); assay type: functional; settings: Homo sapiens
[15] = test system: HEK293; test: NOD2 signaling inhibitors in MDP-stimulated cells, cell-based, uHTS, luminescence (AID 2001); assay type: functional; settings: Homo sapiens
[16] = biological target: Nucleotide-binding oligomerization domain-containing protein 2 (Homo sapiens, UniProt Q9HC29); test: inhibition of NOD2-driven NF-kB reporter – cell-based, luminescence, uHTS, HEK293 (AID 1566); assay type: functional
Sequence of Nucleotide-binding oligomerization domain-containing protein 2 (Q9HC29 whole entry, the tested form may be a part): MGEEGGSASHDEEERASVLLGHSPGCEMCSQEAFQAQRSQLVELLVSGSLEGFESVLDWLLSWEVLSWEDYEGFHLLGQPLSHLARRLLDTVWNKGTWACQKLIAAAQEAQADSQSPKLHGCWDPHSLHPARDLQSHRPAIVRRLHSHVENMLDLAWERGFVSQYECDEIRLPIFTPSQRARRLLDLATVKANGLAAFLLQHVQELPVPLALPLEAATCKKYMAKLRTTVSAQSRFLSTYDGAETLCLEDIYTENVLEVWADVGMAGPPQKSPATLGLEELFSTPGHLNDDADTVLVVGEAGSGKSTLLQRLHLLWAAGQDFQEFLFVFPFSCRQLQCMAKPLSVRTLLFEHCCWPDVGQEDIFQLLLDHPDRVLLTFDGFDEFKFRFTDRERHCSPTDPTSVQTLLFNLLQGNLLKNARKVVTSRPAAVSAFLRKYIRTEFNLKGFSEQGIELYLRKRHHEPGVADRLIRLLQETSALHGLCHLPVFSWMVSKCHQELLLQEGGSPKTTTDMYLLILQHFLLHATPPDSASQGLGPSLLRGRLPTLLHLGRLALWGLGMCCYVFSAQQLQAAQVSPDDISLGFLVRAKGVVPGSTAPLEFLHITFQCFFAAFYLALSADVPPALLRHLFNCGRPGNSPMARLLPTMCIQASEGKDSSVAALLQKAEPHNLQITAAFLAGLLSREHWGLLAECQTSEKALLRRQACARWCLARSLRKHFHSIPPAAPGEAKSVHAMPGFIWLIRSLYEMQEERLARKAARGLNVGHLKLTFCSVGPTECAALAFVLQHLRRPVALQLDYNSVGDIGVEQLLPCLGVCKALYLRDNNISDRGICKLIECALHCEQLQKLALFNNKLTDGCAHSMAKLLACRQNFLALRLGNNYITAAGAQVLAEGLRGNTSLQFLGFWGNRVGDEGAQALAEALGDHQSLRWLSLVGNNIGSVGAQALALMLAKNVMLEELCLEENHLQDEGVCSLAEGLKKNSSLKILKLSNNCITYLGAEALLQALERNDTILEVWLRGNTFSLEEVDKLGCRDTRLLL

[17] = biological target: T3, Zinc finger protein mex-5 (Caenorhabditis elegans, UniProt Q9XUB2); test: potency of MEX-5 RNA-binding blockers – biochemical, C. elegans, fluorescence polarization, dose response (AID 1960)
T3 sequence (Q9XUB2 whole entry): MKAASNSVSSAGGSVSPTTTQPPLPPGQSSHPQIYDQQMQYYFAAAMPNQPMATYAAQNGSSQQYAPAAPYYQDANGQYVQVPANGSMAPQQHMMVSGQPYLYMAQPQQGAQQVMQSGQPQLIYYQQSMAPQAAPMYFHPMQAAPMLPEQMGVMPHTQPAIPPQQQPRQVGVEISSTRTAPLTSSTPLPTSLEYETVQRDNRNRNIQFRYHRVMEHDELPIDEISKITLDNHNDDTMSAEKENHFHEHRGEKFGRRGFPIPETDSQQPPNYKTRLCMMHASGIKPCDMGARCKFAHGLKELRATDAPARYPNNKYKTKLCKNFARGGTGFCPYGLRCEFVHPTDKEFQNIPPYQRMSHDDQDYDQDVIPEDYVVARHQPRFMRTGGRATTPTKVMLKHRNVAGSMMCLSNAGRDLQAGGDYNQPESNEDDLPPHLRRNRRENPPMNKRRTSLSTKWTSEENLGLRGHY

[18] = biological target: Keap1/Nrf2 (Homo sapiens, UniProt Q14145); test: disruptors of Keap1 binding to Nrf2 peptide – biochemical, fluorescence polarization, cherry-picked samples, dose response (AID 588683)
Sequence of Keap1/Nrf2 (Q16236 whole entry): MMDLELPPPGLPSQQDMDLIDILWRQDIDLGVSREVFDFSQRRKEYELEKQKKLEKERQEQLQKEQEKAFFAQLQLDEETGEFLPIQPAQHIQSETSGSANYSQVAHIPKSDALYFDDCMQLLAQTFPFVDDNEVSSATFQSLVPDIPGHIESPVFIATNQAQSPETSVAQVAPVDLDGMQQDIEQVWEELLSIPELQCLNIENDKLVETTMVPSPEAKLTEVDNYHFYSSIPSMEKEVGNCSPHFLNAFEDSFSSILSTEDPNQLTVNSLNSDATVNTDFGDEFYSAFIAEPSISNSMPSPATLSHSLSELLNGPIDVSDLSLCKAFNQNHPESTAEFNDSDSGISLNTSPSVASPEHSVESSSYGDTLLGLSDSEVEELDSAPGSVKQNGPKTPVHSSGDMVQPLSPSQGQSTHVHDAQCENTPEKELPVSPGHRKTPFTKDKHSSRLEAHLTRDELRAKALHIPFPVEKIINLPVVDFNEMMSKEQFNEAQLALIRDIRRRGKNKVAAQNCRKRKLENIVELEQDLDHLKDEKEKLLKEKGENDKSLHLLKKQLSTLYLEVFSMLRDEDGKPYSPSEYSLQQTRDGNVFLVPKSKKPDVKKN
Sequence of Keap1/Nrf2 (Q14145 whole entry): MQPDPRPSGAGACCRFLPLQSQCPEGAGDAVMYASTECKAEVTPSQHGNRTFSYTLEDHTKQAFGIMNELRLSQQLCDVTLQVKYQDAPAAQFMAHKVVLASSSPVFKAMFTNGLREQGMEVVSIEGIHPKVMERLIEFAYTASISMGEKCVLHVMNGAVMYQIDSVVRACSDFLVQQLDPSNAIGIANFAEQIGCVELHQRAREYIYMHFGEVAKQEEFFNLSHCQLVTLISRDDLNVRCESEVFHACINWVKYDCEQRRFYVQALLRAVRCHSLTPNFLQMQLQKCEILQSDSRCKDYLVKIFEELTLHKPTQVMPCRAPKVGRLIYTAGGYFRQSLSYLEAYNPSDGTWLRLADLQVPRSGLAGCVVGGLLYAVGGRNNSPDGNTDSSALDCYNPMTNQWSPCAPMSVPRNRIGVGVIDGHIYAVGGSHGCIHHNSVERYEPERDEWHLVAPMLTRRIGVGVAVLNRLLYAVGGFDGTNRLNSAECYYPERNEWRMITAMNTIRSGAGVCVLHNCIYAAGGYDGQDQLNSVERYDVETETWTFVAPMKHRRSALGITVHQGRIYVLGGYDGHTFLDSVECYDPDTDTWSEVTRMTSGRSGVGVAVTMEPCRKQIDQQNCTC

[19] = biological target: UDP-galactopyranose mutase (Mycobacterium tuberculosis, UniProt P9WIQ1); test: Inhibitors of Mycobacterium tuberculosis UDP-galactopyranose mutase (UGM) enzyme Measured in Biochemical System Using Plate Reader - 2105-02_Inhibitor_Dose_CherryPick_Activity. [Related pubchem assays (depositor defined):AID504439]
Sequence of UDP-galactopyranose mutase (P9WIQ1 whole entry): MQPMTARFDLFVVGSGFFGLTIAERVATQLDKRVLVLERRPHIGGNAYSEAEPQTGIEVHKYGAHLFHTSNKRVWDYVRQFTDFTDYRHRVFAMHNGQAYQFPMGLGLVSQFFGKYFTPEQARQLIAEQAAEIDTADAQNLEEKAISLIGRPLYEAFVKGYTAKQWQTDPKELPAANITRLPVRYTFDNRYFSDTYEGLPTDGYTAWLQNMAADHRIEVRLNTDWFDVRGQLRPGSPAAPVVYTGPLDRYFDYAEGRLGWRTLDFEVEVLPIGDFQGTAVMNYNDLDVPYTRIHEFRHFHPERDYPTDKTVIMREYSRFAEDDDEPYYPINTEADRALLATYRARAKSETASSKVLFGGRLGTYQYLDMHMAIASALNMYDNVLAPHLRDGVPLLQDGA

[20] = biological target: Beta-lactamase (Salmonella choleraesuis (strain SC-B67), UniProt Q5J463)
[21] = biological target: T4, RNA-binding protein pos-1 (Caenorhabditis elegans, UniProt G5EF15); test: disruptors of C. elegans POS-1 RNA interaction – biochemical, fluorescence polarization, dose response (AID 1964);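 note: purified POS-1 fused to maltose binding protein made in E. coli; potency of compounds blocking POS-1 binding to fluorescent RNA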
T4 sequence (G5EF15 whole entry): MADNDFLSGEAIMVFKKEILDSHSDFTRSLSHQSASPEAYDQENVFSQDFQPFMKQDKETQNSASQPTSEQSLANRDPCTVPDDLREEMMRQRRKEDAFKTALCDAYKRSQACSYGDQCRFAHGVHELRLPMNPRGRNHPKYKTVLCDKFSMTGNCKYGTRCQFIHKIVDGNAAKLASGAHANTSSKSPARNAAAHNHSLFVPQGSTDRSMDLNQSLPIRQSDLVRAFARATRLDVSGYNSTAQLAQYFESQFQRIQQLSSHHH

[22] = biological target: Beta-lactamase (Pseudomonas aeruginosa, UniProt Q79MP6);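 note: biochemical dose-response test of metallo-beta-lactamase enzyme inhibition, read out by epi-absorbance; purified recombinant IMP-1 metallo-beta-lactamase with nitrocefin as substrate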
[23] = biological target: T1, Cytochrome P450 1A2; remark: listed apart in the source
[24] = biological target: Luciferin 4-monooxygenase (Photinus pyralis, UniProt P08659); test: inhibition of purified Photinus pyralis luciferase – biochemical, luminescence, dose response (AID 1891)
[25] = test system: HeLa; test: ATP-based viability loss in HeLa cells – cell-based, CellTiter-Glo luminescence, cherry-pick samples, cytotoxicity control for MITF activator project, dose response (AID 540259); assay type: functional; settings: Homo sapiens
[26] = Luminescence Cell-Based Dose Confirmation HTS to Identify Inhibitors of Platelet Dense Granule Release. [Related pubchem assays: 1663 (Primary HTS), 1678 (Summary of Project)]; assay type: functional
[27] = biological target: ORF 73 (Human herpesvirus 8, UniProt O40947); test: KSHV LANA DNA-binding disruption – biochemical, fluorescence polarization, cherry-picked samples, dose response (AID 504725); design: species or system Human gammaherpesvirus 8;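 note: fluorescence polarization of a labeled DNA duplex reporting LANA DNA binding; potency is for inhibitors that block LANA binding to the DNA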
[28] = test system: HeLa; test: viability loss in HeLa cells – cell-based, 24 h, cherry-picked samples, cytotoxicity control, dose response (AID 504726); assay type: functional; settings: Homo sapiens;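 note: potency for cytotoxicity as loss of luminescence signal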
[29] = biological target: CAAX prenyl protease 2 (Homo sapiens, UniProt Q9Y256); test: inhibition of Ras-converting CAAX protease Rce1 – biochemical, yeast membranes, quenched-peptide fluorescence, cherry-pick, dose response (AID 588849)
Sequence of CAAX prenyl protease 2 (Homo sapiens, UniProt Q9Y256) (Q9Y256 whole entry): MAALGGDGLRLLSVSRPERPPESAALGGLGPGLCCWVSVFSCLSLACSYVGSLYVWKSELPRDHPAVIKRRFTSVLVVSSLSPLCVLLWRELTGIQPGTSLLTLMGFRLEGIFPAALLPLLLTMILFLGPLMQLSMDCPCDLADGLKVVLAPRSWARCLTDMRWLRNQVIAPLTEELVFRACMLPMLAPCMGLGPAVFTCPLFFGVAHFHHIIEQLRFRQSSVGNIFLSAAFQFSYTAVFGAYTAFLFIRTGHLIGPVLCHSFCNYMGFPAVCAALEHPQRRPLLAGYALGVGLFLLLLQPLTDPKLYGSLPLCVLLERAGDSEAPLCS

[30] = biological target: Trypsin (Sus scrofa, UniProt P00761); test: trypsin protease activity blockade – biochemical, quenched peptide fluorescence, cherry-pick, selectivity assay for Rce1 protease inhibitor project, dose response (AID 488789)
[31] = biological target: CAAX prenyl protease 2 (Saccharomyces cerevisiae S288c, UniProt Q03530); assay type: biochemical
Sequence of CAAX prenyl protease 2 (Saccharomyces cerevisiae S288c, UniProt Q03530) (Q03530 whole entry): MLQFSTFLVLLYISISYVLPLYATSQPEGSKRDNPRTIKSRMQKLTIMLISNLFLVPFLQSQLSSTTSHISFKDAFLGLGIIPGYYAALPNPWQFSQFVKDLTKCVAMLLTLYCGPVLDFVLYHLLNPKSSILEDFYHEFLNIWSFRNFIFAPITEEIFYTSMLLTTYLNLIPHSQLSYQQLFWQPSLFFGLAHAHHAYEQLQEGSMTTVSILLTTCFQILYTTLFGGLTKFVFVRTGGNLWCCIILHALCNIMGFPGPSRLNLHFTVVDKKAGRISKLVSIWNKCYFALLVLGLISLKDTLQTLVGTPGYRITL

[32] = biological target: CAAX prenyl protease 1 (Saccharomyces cerevisiae S288c, UniProt P47154); test: yeast CAAX protease Ste24 inhibition – biochemical, S. cerevisiae, plate reader, cherry-pick, dose response (AID 488815)
[33] = Luminescence Cell-Based Dose Response HTS to Identify Activators of Luciferase Translation or Activity in H4 […] Cells. [Related pubchem assays: 1829 (Project Summary), 1814 (Primary HTS)]; assay type: functional
[34] = test system: H4; test: Luminescence Cell-Based Dose Response HTS to Identify Activators of 5'UTR Stem-Loop Driven Prion Protein mRNA Translation in H4 Neuroglioblastoma Cells. [Related pubchem assays: 1829 (Project Summary), 1814 (Primary HTS)]; assay type: functional; settings: Homo sapiens

Sequence of Cytochrome P450 3A4 (P08684 whole entry): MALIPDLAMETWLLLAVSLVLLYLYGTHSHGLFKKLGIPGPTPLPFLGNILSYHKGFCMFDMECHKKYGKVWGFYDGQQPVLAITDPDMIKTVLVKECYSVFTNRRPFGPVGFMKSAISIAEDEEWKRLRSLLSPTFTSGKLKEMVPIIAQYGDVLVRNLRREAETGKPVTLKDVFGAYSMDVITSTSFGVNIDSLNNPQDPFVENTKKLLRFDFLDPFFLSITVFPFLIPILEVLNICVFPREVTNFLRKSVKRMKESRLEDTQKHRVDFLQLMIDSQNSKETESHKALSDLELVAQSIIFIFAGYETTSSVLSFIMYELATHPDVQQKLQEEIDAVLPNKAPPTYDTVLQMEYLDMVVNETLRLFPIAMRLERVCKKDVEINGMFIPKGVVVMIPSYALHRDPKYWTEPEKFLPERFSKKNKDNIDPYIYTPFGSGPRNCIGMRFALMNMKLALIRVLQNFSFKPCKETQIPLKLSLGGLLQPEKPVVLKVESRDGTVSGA

Structure (SMILES): O=C(O)c1cc(/N=N\c2ccc(S(=O)(=O)Nc3ccccn3)cc2)ccc1O
- AC50 [1]: inactive
- AC50 [2]: inactive
- AC50 [3]: inactive
- AC50 [4]: inactive
- AC50 [5]: 7.94 µM (inconclusive)

Structure (SMILES): O=C(c1ccc2c(c1)N(Cc1ccccc1)C(=O)CS2)N1CCOCC1
- AC50 ([3]; read-out: AC50): 28.2 µM (inconclusive)
- AC50 [4]: inconclusive
- AC50 [5]: 14.1 µM (inconclusive)

Structure (SMILES): CC(=O)NNc1ncnc2ccccc12
- IC50 [6]: > 67.5 µM (inactive)
- IC50 [7]: > 67.5 µM (inactive)

Structure (SMILES): CC(C)COc1ccc(C(=O)Nc2sc3c(c2C(=O)O)CC(C)(C)OC3)cc1
- IC50 [8]: > 20 µM (inactive)
- IC50 [9]: > 20 µM (inactive)
- IC50 [10]: 12.6 µM (active)
- EC50 [11]: 11.3 µM (active)
- EC50 [12]: 11.2 µM (active)
- EC50 [13]: > 120 µM (not active)
- EC50 [14]: 2.59 µM (active)
- IC50 [15]: 5.19 µM (active)
- EC50 [16]: 0.22 µM (active)

Structure (SMILES): CN1C(=O)c2cccc3c(N)ccc(c23)C1=O
- EC50 [17]: 0.116 µM (inconclusive)
- AC50 [18]: 0.839 µM (active)
- AC50 [19]: 1.59 µM (active)
- IC50 [20]: 5.56 µM (active)
- EC50 [21]: 0.363 µM (inconclusive)
- IC50 [22]: 10.5 µM (inactive)

Structure (SMILES): COc1ccc(-n2c(=O)c(-c3ccccc3)nc3cnc(N4CCN(C)CC4)nc32)cc1
- AC50 [2]: inconclusive
- AC50 [23]: 20 µM (inconclusive)
- AC50 [5]: 31.6 µM (inconclusive)

Structure (SMILES): Cc1cc(/C=C2\SC(=S)N(C)C2=O)c(C)n1-c1cccc(O)c1
- IC50 [8]: 4.55 µM (active)
- IC50 [9]: 9.54 µM (active)
- IC50 [10]: > 20 µM (inactive)
- EC50 [14]: 9.29 µM (active)
- IC50 [15]: 0.695 µM (active)
- EC50 [16]: 1.1 µM (active)

Structure (SMILES): COc1ccccc1NC(=O)Nc1ccc(C(=O)N2CCCCC2)cc1
- EC50 [24]: 2.01 µM (active)
- AC50 [25]: 67 µM (active)
- EC50 [26]: 6.67 µM (active)

Structure (SMILES): CN1C(=O)C(=N)c2c3ccccc3c(O)c3c(Br)ccc1c23
- AC50 [27]: 2.73 µM (active)
- EC50 [17]: < 0.06 µM (inconclusive)
- AC50 [18]: 0.54 µM (active)
- AC50 [19]: 0.519 µM (active)
- EC50 [21]: 0.66 µM (inconclusive)
- AC50 [28]: 303 µM (active)

Structure (SMILES): CS(=O)(=O)Nc1ccc(C2=NN(S(C)(=O)=O)C(c3cccs3)C2)cc1 (stereo not drawn)
- AC50 [29]: 2.38 µM (active)
- AC50 [30]: 4.41 µM (active)
- AC50 [31]: 6.27 µM (active)

Structure (SMILES): COCc1cc(C)n(CC(=O)NCc2ccccc2)c(=O)c1C#N
- AC50 [29]: 25.8 µM (active)
- AC50 [32]: 7.22 µM (active)

Structure (SMILES): CCn1c(C(=O)OC)cc2c1ccn2-c1ccc(F)cc1
- EC50 [33]: 69.7 µM (active)
- EC50 [34]: > 120 µM (not active)
- AC50 [25]: 91.9 µM (active)

Structure (SMILES): CC1(C)Nc2ccccc2C(=O)N1c1ccc(Br)cc1
- IC50 [6]: > 67.5 µM (inactive)
- IC50 [7]: > 67.5 µM (inactive)
